{
  "source": "patent EP0465481B1",
  "about": "“NEW S[…] DERIVATIVES OF TEICOPLANIN” (GRUPPO LEPETIT S.p.A., priority 1989, dated 1990)",
  "system": "Pseudomonas aeruginosa",
  "experiment": "MIC, standard two-fold dilution test in microtiter",
  "format": "cell-based",
  "conditions": "against Pseudomonas aeruginosa",
  "procedure": "Broth cultures are diluted enough so that the final inoculum is about 10^4 colony forming units/ml (CFU/mi).",
  "data": [
    {"substance": "teicoplanin", "values": [
      {"measurement": "MIC", "value": "≥ 32", "unit": "microgram/ml"}
    ]}
  ]
}
